In ChEMBL document CHEMBL3817831, “Ionophoric polyphenols selectively bind Cu(2+), display potent antioxidant and anti-amyloidogenic properties, and are non-toxic toward Tetrahymena thermophila” (Bioorg Med Chem, 2016):
Values belong to the compound of their own block, whether it stands above or below them. Active and inactive are the calls of the source. The rule behind the calls is not given here.

Key:
[1] = Inhibition of Cu2+-induced amyloid beta (1 to 40) fibril aggregation assessed as remaining fibril aggregates at 100 uM preincubated for 5 mins followed by amyloid beta (1 to 40) addition measured after 3 days at pH 6.60 by thioflavin-T fluorescence assay
[2] = Binding affinity to Zn2+ using ZnCl2 at 20 uM after 5 mins by spectrophotometry
[3] = biological target: Amyloid-beta precursor protein (Homo sapiens) (UniProt P05067); assay: Induction of self-induced amyloid beta (1 to 40) (unknown origin) fibril aggregation at 100 uM after 3 days by turbidity assay
[4] = Inhibition of preformed Cu2+-induced amyloid beta (1 to 40) fibril aggregation assessed as remaining fibril aggregates at 100 uM after 12 days at pH 6.60 by thioflavin-T fluorescence assay
[5] = Ratio of resveratrol IC50 to compound IC50 for AAPH radical scavenging activity
[6] = Inhibition of Cu2+-induced amyloid beta (1 to 40) fibril aggregation at 100 uM preincubated for 5 mins followed by amyloid beta (1 to 40) addition measured after 18 days by turbidity assay
[7] = Toxicity in Tetrahymena thermophila assessed as reduction in cell viability after 48 hrs by MTT assay; format: organism-based; details: Tetrahymena thermophila cells, read-out: LD50
[8] = Inhibition of Cu2+-induced amyloid beta (1 to 40) fibril aggregation assessed as remaining fibril aggregates at 100 uM preincubated for 5 mins followed by amyloid beta (1 to 40) addition measured after 7 days at pH 6.60 by thioflavin-T fluorescence assay
[9] = Binding affinity to Fe2+ using FeCl2 at 20 uM after 5 mins by spectrophotometry
[10] = biological target: Amyloid-beta precursor protein (Homo sapiens) (UniProt P05067); assay: Inhibition of preformed self-induced amyloid beta (1 to 40) (unknown origin) fibril aggregation at 100 uM after 12 days by turbidity assay relative to control
[11] = Inhibition of Cu2+-induced amyloid beta (1 to 40) aggregation at 100 uM preincubated for 5 mins followed by amyloid beta (1 to 40) addition measured after 18 days at pH 6.60 by thioflavin-T fluorescence assay
[12] = Binding affinity to Cu2+ using CuCl2 at 10 uM after 5 mins by spectrophotometric titration assay
[13] = biological target: Amyloid-beta precursor protein (Homo sapiens) (UniProt P05067); assay: Binding affinity to amyloid beta (1 to 40) (unknown origin) by tyrosine fluorimetric titration assay
[14] = Inhibition of preformed Cu2+-induced amyloid beta (1 to 40) fibril aggregation at 100 uM after 12 days by turbidity assay relative to control
[15] = biological target: Amyloid-beta precursor protein (Homo sapiens) (UniProt P05067); assay: Inhibition of self-induced amyloid beta (1 to 40) (unknown origin) fibril aggregation at 100 uM after 7 to 18 days by turbidity assay
[16] = Inhibition of Cu2+-amyloid beta (1 to 40) catalyzed generation of hydroxyl radical assessed as rate of radical formation per min at 2 equiv preincubated for 1 hr followed by CCA addition measured over 60 mins by CCA based fluorescence assay (reference value: 13 +/- 0.2 a.u.)
[17] = Binding affinity to Mn2+ using MnCl2 at 20 uM after 5 mins by spectrophotometry
[18] = Binding affinity to Mg2+ using MgSO4 at 20 uM after 5 mins by spectrophotometry
[19] = Inhibition of preformed Cu2+-induced amyloid beta (1 to 40) fibril aggregation assessed as remaining fibril aggregates at 100 uM after 4 days at pH 6.60 by thioflavin-T fluorescence assay
[20] = Antioxidant activity assessed as AAPH radical scavenging activity preincubated for 30 mins followed by AAPH addition measured after 60 mins by ORAC assay; format: physicochemical
[21] = biological target: Amyloid-beta precursor protein (Homo sapiens) (UniProt P05067); assay: Induction of preformed self-induced amyloid beta (1 to 40) (unknown origin) fibril aggregation at 100 uM after 4 days by turbidity assay
[22] = Binding affinity to Cu2+ using CuCl2 after 5 mins by spectrophotometry
[23] = biological target: Amyloid-beta precursor protein (Homo sapiens) (UniProt P05067); assay: Inhibition of self-induced amyloid beta (1 to 40) (unknown origin) fibril aggregation assessed as remaining fibril aggregates at 100 uM after 7 days at pH 6.60 by thioflavin-T fluorescence assay
[24] = biological target: Amyloid-beta precursor protein (Homo sapiens) (UniProt P05067); assay: Inhibition of self-induced amyloid beta (1 to 40) (unknown origin) fibril aggregation assessed as remaining fibril aggregates at 100 uM after 3 days at pH 6.60 by thioflavin-T fluorescence assay
[25] = Binding affinity to Ca2+ using CaCl2 at 20 uM after 5 mins by spectrophotometry
[26] = Ratio of resveratrol IC50 to compound IC50 for DPPH free radical scavenging activity
[27] = biological target: Amyloid-beta precursor protein (Homo sapiens) (UniProt P05067); assay: Inhibition of preformed self-induced amyloid beta (1 to 40) (unknown origin) fibril aggregation assessed as remaining fibril aggregates at 100 uM after 4 days at pH 6.60 by thioflavin-T fluorescence assay
[28] = Inhibition of Cu2+-amyloid beta (1 to 40) catalyzed generation of hydroxyl radical assessed as 7-hrdroxy-CCA formation at 2 equiv preincubated for 1 hr followed by CCA addition measured over 60 mins by fluorescence assay
[29] = Inhibition of preformed Cu2+-induced amyloid beta (1 to 40) fibril aggregation at 100 uM after 12 days by turbidity assay relative to total turbidity of amyloid beta (1 to 40) aggregates
[30] = biological target: Amyloid-beta precursor protein (Homo sapiens) (UniProt P05067); assay: Inhibition of preformed self-induced amyloid beta (1 to 40) (unknown origin) fibril aggregation assessed as remaining fibril aggregates at 100 uM after 12 days at pH 6.60 by thioflavin-T fluorescence assay
[31] = Antioxidant activity assessed as DPPH free radical scavenging activity after 30 mins by spectrophotometry; format: physicochemical
[32] = Inhibition of preformed Cu2+-induced amyloid beta (1 to 40) fibril aggregation at 100 uM after 4 to 12 days by turbidity assay relative to control
[33] = Induction of Cu2+-induced amyloid beta (1 to 40) fibril aggregation at 100 uM preincubated for 5 mins followed by amyloid beta (1 to 40) addition measured after 3 to 7 days by turbidity assay
[34] = Binding affinity to Cu2+ using CuCl2 at 20 uM after 5 mins by spectrophotometric titration assay
[35] = Ratio of ascorbic acid IC50 to compound IC50 for DPPH free radical scavenging activity
[36] = Induction of preformed Cu2+-induced amyloid beta (1 to 40) fibril aggregation at 100 uM after 4 to 12 days by turbidity assay relative to control
[37] = Binding affinity to Cu2+ assessed as compound-metal adduct formation

Chain of Amyloid-beta precursor protein (Homo sapiens) (P05067 whole entry): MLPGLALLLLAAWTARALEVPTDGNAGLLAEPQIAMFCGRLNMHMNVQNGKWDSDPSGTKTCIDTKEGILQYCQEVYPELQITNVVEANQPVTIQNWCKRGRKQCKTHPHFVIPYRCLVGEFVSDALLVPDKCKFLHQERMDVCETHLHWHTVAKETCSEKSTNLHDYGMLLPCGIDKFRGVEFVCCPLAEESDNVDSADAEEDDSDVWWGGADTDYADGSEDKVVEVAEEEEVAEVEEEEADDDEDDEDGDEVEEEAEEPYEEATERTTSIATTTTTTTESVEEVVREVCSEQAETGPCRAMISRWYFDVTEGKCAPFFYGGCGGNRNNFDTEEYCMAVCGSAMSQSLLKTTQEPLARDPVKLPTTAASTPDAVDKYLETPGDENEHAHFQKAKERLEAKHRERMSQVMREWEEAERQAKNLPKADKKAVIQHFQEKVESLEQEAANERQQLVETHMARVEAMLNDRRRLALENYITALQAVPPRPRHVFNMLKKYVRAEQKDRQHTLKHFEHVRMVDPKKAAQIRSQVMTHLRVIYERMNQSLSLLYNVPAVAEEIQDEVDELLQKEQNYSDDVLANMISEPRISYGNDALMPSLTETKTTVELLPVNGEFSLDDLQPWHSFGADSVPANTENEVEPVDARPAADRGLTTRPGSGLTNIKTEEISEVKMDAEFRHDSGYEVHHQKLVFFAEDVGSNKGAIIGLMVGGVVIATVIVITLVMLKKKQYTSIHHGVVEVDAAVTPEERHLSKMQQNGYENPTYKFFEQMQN

SMILES: Oc1ccccc1/N=C/c1c(O)ccc2ccccc12
Activity [1]: 41.5%
Activity [2]: inactive
Activity [3]: Active
Activity [4]: 42.8%
Ratio IC50 [5]: 0.1
inhibition [6]: Active
LC50 at 48 h [7]: 158 µM
Activity [8]: 33.7%
Activity [9]: inactive
inhibition [10]: 25%
inhibition [11]: Active
Activity [12]: Active
Ka [13]: 1.91 ×10⁵ /M
inhibition [14]: < 57%
inhibition [15]: Active
Activity [16]: 0 a.u.
Activity [17]: inactive
Activity [18]: inactive
Activity [19]: 66.4%
IC50 [20]: 11.5 µM
Activity [21]: Active
logKa [22]: 14
Activity [23]: 13.9%
Activity [24]: 22.6%
Activity [25]: inactive
Ratio IC50 [26]: 0.5
Activity [27]: 36.2%
inhibition [28]: 100%
inhibition [29]: < 22%
Activity [30]: 26.6%
IC50 [31]: 38.5 µM

SMILES: Oc1ccc(/C=C/c2cc(O)cc(O)c2)cc1 [RESVERATROL]
Activity [1]: 25.9%
inhibition [32]: inactive
Activity [2]: inactive
Activity [3]: Active
Activity [4]: 144%
LC50 at 48 h [7]: 274 µM
Activity [8]: 16.1%
Activity [9]: Active
Ka [13]: 1.65 ×10⁵ /M
Activity [16]: 11.2 a.u.
Activity [17]: inactive
Activity [18]: inactive
Activity [19]: 239%
IC50 [20]: 1.7 µM
logKa [22]: 6.7
Activity [23]: 4.25%
Activity [24]: 7.48%
Activity [25]: inactive
Activity [27]: 100%
inhibition [28]: 9%
Activity [30]: 24.1%
IC50 [31]: 17.8 µM

IC50 [20]: 62.2 µM
IC50 [31]: 12.8 µM
SMILES: O=C1O[C@H]([C@@H](O)CO)C(O)=C1O [ASCORBIC ACID]
Ratio IC50 [5]: 0.02
Ratio IC50 [26]: 1.4

SMILES: Oc1ccc(CNc2ccccc2O)cc1
Activity [1]: 21.8%
inhibition [32]: Active
Activity [2]: inactive
Activity [3]: Active
Activity [4]: 106%
Ratio IC50 [5]: 1.2
inhibition [6]: Active
Activity [33]: 47%
LC50 at 48 h [7]: 211 µM
Activity [8]: 11%
Activity [9]: inactive
inhibition [10]: Active
inhibition [11]: Active
Ka [13]: 3.27 ×10⁵ /M
inhibition [15]: Active
Activity [16]: 6.8 a.u.
Activity [17]: inactive
Activity [18]: inactive
Activity [19]: 152%
IC50 [20]: 1.38 µM
Activity [21]: Active
logKa [22]: 12.8
Activity [23]: 3.7%
Activity [34]: Active
Activity [24]: 4.34%
Activity [25]: inactive
Ratio IC50 [26]: 2.8
Activity [27]: 8.37%
inhibition [28]: 47.3%
Ratio IC50 [35]: 2
Activity [30]: 10.1%
IC50 [31]: 6.27 µM

SMILES: Oc1c(I)cc(Cl)c2cccnc12 [CLIOQUINOL]
Activity [1]: 250%
Activity [2]: Active
Ratio IC50 [5]: 0.2
LC50 at 48 h [7]: 240 µM
Activity [8]: 196%
Activity [9]: Active
Ka [13]: 3.69 ×10⁵ /M
Activity [16]: 1.2 a.u.
Activity [17]: Active
Activity [18]: Active
Activity [36]: Active
IC50 [20]: 9.72 µM
logKa [22]: 15.6
Activity [23]: 112%
logKa [37]: 10
Activity [24]: 120%
Activity [25]: Active
Ratio IC50 [26]: 0.4
Activity [27]: 170%
inhibition [28]: 87.7%
Activity [30]: 310%
IC50 [31]: 40.6 µM

SMILES: Oc1ccc(/N=C/c2c(O)ccc3ccccc23)c(O)c1
Activity [1]: 7.85%
Activity [2]: inactive
Activity [3]: Active
Activity [4]: 47.3%
Ratio IC50 [5]: 0.5
inhibition [6]: Active
Activity [33]: 47%
LC50 at 48 h [7]: 265 µM
Activity [8]: 10.9%
Activity [9]: inactive
inhibition [10]: Active
inhibition [11]: Active
Activity [12]: Active
Ka [13]: 2.46 ×10⁵ /M
inhibition [15]: Active
Activity [16]: 0.03 a.u.
Activity [17]: inactive
Activity [18]: inactive
Activity [36]: Active
Activity [19]: 46%
IC50 [20]: 3.15 µM
Activity [21]: Active
logKa [22]: 14.3
Activity [23]: 6.21%
Activity [24]: 6.51%
Activity [25]: inactive
Ratio IC50 [26]: 1.3
Activity [27]: 14.4%
inhibition [28]: 98.5%
Activity [30]: 11%
IC50 [31]: 13.5 µM

SMILES: Oc1cccc(CNc2ccccc2O)c1
Activity [1]: 45%
inhibition [32]: Active
Activity [2]: inactive
Activity [3]: Active
Activity [4]: 117%
Ratio IC50 [5]: 1.4
inhibition [6]: Active
Activity [33]: 47%
LC50 at 48 h [7]: 180 µM
Activity [8]: 17.2%
Activity [9]: inactive
inhibition [10]: 46%
inhibition [11]: Active
Ka [13]: 1.55 ×10⁵ /M
inhibition [15]: Active
Activity [16]: 5.4 a.u.
Activity [17]: inactive
Activity [18]: inactive
Activity [19]: 144%
IC50 [20]: 1.24 µM
Activity [21]: Active
logKa [22]: 13.1
Activity [23]: 6.65%
Activity [34]: Active
Activity [24]: 8.2%
Activity [25]: inactive
Ratio IC50 [26]: 3
Activity [27]: 11.7%
inhibition [28]: 51.1%
Ratio IC50 [35]: 2
Activity [30]: 20.3%
IC50 [31]: 5.87 µM

SMILES: Oc1ccc(CNc2ccccc2O)cc1O
Activity [1]: 19.5%
Activity [2]: inactive
Activity [3]: Active
Activity [4]: 69.7%
Ratio IC50 [5]: 2.8
inhibition [6]: Active
Activity [33]: 47%
LC50 at 48 h [7]: 354 µM
Activity [8]: 12.1%
Activity [9]: inactive
inhibition [10]: Active
inhibition [11]: Active
Ka [13]: 3.55 ×10⁵ /M
inhibition [15]: Active
Activity [16]: 4 a.u.
Activity [17]: inactive
Activity [18]: inactive
Activity [36]: Active
Activity [19]: 76.5%
IC50 [20]: 0.61 µM
Activity [21]: Active
logKa [22]: 12.6
Activity [23]: 7.49%
Activity [34]: Active
Activity [24]: 9.17%
Activity [25]: inactive
Ratio IC50 [26]: 5.8
Activity [27]: 12.8%
inhibition [28]: 59.9%
Ratio IC50 [35]: 2
Activity [30]: 9.28%
IC50 [31]: 3.05 µM
